Experimental data taken from EP1561465A2, “Methods of use of fluoroquinolone compounds against bacteria” (LG Life Sciences, Ltd., priority 1999, dated 2001).
Converted amounts (≈) assume the structure as drawn. Like-named read-outs stand apart in the source and are kept apart here.

Columns and labels:
Assay type in all cases: cell-based
[1] = test system: Streptococcus pneumoniae; test: MIC by agar dilution (NCCLS), 411 isolates Buenos Aires 1998-99; conditions: for MIC / MIC90: Streptococcus pneumoniae; for MIC90: read-out: MIC90
[2] = test system: Moraxella catarrhalis; test: as above; conditions: Moraxella catarrhalis (n = 59)
[3] = test system: Streptococcus pneumoniae and Haemophilus influenzae; test: MIC by broth microdilution (NCCLS), all isolates pooled
[4] = test system: Haemophilus influenzae; test: MIC by two-fold serial agar dilution, Sensitivity Disk agar-N (Kitasato isolates); conditions: Haemophilus influenzae (24)
[5] = test system: Streptococcus pneumoniae; test: as above; conditions: for MIC90 / MIC / MIC50: Streptococcus pneumoniae; for MIC90: read-out: MIC90; for MIC: read-out: MIC Range; for MIC50: read-out: MIC50
[6] = test system: E. coli; test: microbe, parasite or virus in culture; conditions: for MIC50 / MIC: Escherichia coli
[7] = test system: Enterococcus faecalis; test: MIC by NCCLS broth microdilution, 1100 Japanese clinical isolates 1997-1998; conditions: for MIC90 / MIC50: Enterococcus faecalis
[8] = test system: Enterococcus gallinarum; test: as above
[9] = test system: Citrobacter freundii; test: as above
[10] = test system: Klebsiella pneumoniae; test: as above; conditions: Klebsiella pneumoniae (n=35)
[11] = test system: Klebsiella oxytoca; test: as above; conditions: Klebsiella oxytoca (n=40)
[12] = test system: Enterobacter aerogenes; test: as above; conditions: Enterobacter aerogenes (n=35)
[13] = test system: Shigella spp.; test: as above; conditions: Shigella spp. (n=34)
[14] = test system: Proteus mirabilis; test: as above
[15] = test system: Proteus vulgaris; test: as above
[16] = test system: Morganella morganii; test: as above; conditions: Morganella morganii (n=40)
[17] = test system: Providencia rettgeri; test: as above
[18] = test system: Escherichia coli; test: MIC by agar dilution (NCCLS), 322 nosocomial Gram negative isolates, Athens 1998; conditions: n = 57 isolates
[19] = test system: Klebsiella pneumoniae; test: as above; conditions: n = 56 isolates
[20] = test system: Proteus mirabilis; test: as above; conditions: Proteus mirabilis; n = 57 isolates
[21] = test system: Salmonella spp.; test: MIC by agar dilution (NCCLS M7-A4), 288 enteropathogenic isolates, gemifloxacin and 15 other antimicrobials; conditions: read-out: MIC
[22] = Streptococcus pneumoniae (n = 90)
[23] = Enterococcus faecalis ciprofloxacin resistant (n=15)
[24] = Enterococcus faecalis ciprofloxacin susceptible (n=24)

SMILES: CO/N=C1\CN(c2nc3c(cc2F)c(=O)c(C(=O)O)cn3C2CC2)CC1CN (racemic) [Gemifloxacin, (R,S)-7-(3-aminomethyl-4-methoxyiminopyrrolidin-1-yl)-1-cyclopropyl-6-fluoro-4-oxo-1,4-dihydro-1,8-naphthyridine-3-carboxylic acid]
- MIC [1]: 0.125 µg/mL (≈ 0.321 µM)
- MIC Range [1, 22]: ≤0.004 to 0.125 µg/mL
- MIC ([1]; Ciprofloxacin-resistant S. pneumoniae, Strain 1, read-out: MIC): 0.03 µg/mL (≈ 0.077 µM)
- MIC ([1]; Ciprofloxacin-resistant S. pneumoniae, Strain 2, read-out: MIC): 0.06 µg/mL (≈ 0.154 µM)
- MIC ([1]; Ciprofloxacin-resistant S. pneumoniae, Strain 4, read-out: MIC): 0.06 µg/mL (≈ 0.154 µM)
- MIC90 ([1]; S. pneumoniae, Penicillin intermediate (n = 17)): 0.03 µg/mL (≈ 0.077 µM)
- MIC90 ([1]; S. pneumoniae, Penicillin resistant (n = 4)): 0.03 µg/mL (≈ 0.077 µM)
- MIC90 ([1]; S. pneumoniae, Penicillin susceptible (n = 69)): 0.03 µg/mL (≈ 0.077 µM)
- MIC90 [1, 22]: 0.03 µg/mL (≈ 0.077 µM)
- MIC Range [2]: ≤0.004 to 0.016 µg/mL
- MIC90 ([2]; read-out: MIC90): 0.008 µg/mL (≈ 0.0205 µM)
- concentration at which all microorganisms were inhibited ([3]; 380 isolates (235 S. pneumoniae, 145 H. influenzae)): 0.06 µg/mL
- concentration at which all isolates were inhibited ([3]; All 602 isolates): 0.12 µg/mL
- MIC90 ([3]; all (380) isolates tested (235 S. pneumoniae, 145 H. influenzae)): 0.03 µg/mL (≈ 0.077 µM)
- MIC90 ([3]; all isolates tested (602)): 0.06 µg/mL (≈ 0.154 µM)
- MIC50 [4]: 0.016 µg/mL (≈ 0.0411 µM)
- MIC90 [4]: 0.016 µg/mL (≈ 0.0411 µM)
- MIC Range [4]: 0.008 to 0.031 µg/mL
- more potent than sparfloxacin ([5]; S. pneumoniae, by MIC90): 8 fold
- more potent than trovafloxacin ([5]; S. pneumoniae, by MIC90): 4 fold
- MIC90 ([5]; 18 h, Ciprofloxacin-resistant (21), ciprofloxacin MIC ≥8 µg/ml): 0.5 µg/mL (≈ 1.28 µM)
- MIC ([5]; 18 h, Ciprofloxacin-resistant (21)): 0.063 to 0.5 µg/mL (≈ 0.162 to 1.28 µM)
- MIC ([5]; 18 h, Ciprofloxacin-susceptible (94)): 0.008 to 0.063 µg/mL (≈ 0.0205 to 0.162 µM)
- MIC ([5]; 18 h, Erythromycin-resistant (37)): 0.016 to 0.5 µg/mL (≈ 0.0411 to 1.28 µM)
- MIC ([5]; 18 h, Minocycline-resistant (37)): 0.016 to 0.5 µg/mL (≈ 0.0411 to 1.28 µM)
- MIC ([5]; 18 h, Penicillin-resistant (19)): 0.016 to 0.063 µg/mL (≈ 0.0411 to 0.162 µM)
- MIC50 ([5]; Ciprofloxacin-resistant (21)): 0.25 µg/mL (≈ 0.642 µM)
- MIC50 ([5]; Ciprofloxacin-susceptible (94)): 0.031 µg/mL (≈ 0.0796 µM)
- MIC90 ([5]; Ciprofloxacin-susceptible (94)): 0.031 µg/mL (≈ 0.0796 µM)
- MIC50 ([5]; Erythromycin-resistant (37)): 0.031 µg/mL (≈ 0.0796 µM)
- MIC90 ([5]; Erythromycin-resistant (37)): 0.063 µg/mL (≈ 0.162 µM)
- MIC50 ([5]; Minocycline-resistant (37)): 0.031 µg/mL (≈ 0.0796 µM)
- MIC90 ([5]; Minocycline-resistant (37)): 0.063 µg/mL (≈ 0.162 µM)
- MIC50 ([5]; Penicillin-resistant (19)): 0.016 µg/mL (≈ 0.0411 µM)
- MIC90 ([5]; Penicillin-resistant (19)): 0.063 µg/mL (≈ 0.162 µM)
- MIC90 ([6]; E. coli (13 strains), quinolone-resistant): 0.25 µg/mL (≈ 0.642 µM)
- MIC50 ([6]; E. coli (13 strains), quinolone-resistant, read-out: MIC50): 0.031 µg/mL (≈ 0.0796 µM)
- MIC ([6]; E. coli KU1029, mutant type SP (spontaneous mutant in the DNA gyrase)): 0.031 µg/mL (≈ 0.0796 µM)
- MIC ([6]; E. coli KU1030, mutant type SP): 0.031 µg/mL (≈ 0.0796 µM)
- MIC ([6]; E. coli KU1031, mutant type SP): 0.031 µg/mL (≈ 0.0796 µM)
- MIC ([6]; E. coli KU1032, mutant type SP): 0.125 µg/mL (≈ 0.321 µM)
- MIC ([6]; E. coli KU1033, mutant type SP): 0.016 µg/mL (≈ 0.0411 µM)
- MIC ([6]; E. coli KU1034, mutant type GA (DNA gyrase A)): 0.25 µg/mL (≈ 0.642 µM)
- MIC ([6]; E. coli KU1035, mutant type GA (DNA gyrase A)): 0.25 µg/mL (≈ 0.642 µM)
- MIC ([6]; E. coli KU1036, mutant type GB (DNA gyrase B)): 0.031 µg/mL (≈ 0.0796 µM)
- MIC ([6]; E. coli KU1038, mutant type SP): 0.031 µg/mL (≈ 0.0796 µM)
- MIC ([6]; E. coli KU1039, mutant type SP): 0.125 µg/mL (≈ 0.321 µM)
- MIC ([6]; E. coli KU1040, mutant type SP): ≤ 0.008 µg/mL
- MIC ([6]; E. coli KU1041, mutant type SP): 0.25 µg/mL (≈ 0.642 µM)
- MIC ([6]; E. coli KU1042, mutant type SP): 0.063 µg/mL (≈ 0.162 µM)
- MIC50 ([6]; E. coli mutated in the DNA gyrase): 0.032 µg/mL (≈ 0.0822 µM)
- MIC90 [7]: 0.125 µg/mL (≈ 0.321 µM)
- MIC Range [7, 23]: 0.063 to 32 µg/mL
- MIC Range [7, 24]: 0.063 to 0.125 µg/mL
- MIC50 [7, 23]: 1 µg/mL (≈ 2.57 µM)
- MIC90 ([7]; Enterococcus faecalis ciprofloxacin resistant (n=15), read-out: MIC90): 8 µg/mL (≈ 20.5 µM)
- MIC50 [7, 24]: 0.063 µg/mL (≈ 0.162 µM)
- MIC ([8]; Enterococcus gallinarum (vanC1), strain TMS3): 0.125 µg/mL (≈ 0.321 µM)
- MIC ([8]; Enterococcus gallinarum, GALLINARUM): 0.125 µg/mL (≈ 0.321 µM)
- MIC ([8]; Enterococcus gallinarum, GALLINARUM, Enterococcus gallinarum (vanC1), strain TMS1, read-out: MIC): 0.032 µg/mL (≈ 0.0822 µM)
- MIC ([8]; Enterococcus gallinarum, GALLINARUM, Enterococcus gallinarum (vanC1), strain TMS4, read-out: MIC): 0.032 µg/mL (≈ 0.0822 µM)
- MIC50 ([9]; Citrobacter freundii): 0.125 µg/mL (≈ 0.321 µM)
- MIC90 ([9]; Citrobacter freundii (n=39)): 2 µg/mL (≈ 5.14 µM)
- MIC Range ([9]; Citrobacter freundii (n=39)): 0.016 to 4 µg/mL
- MIC50 [10]: 0.032 µg/mL (≈ 0.0822 µM)
- MIC Range [10]: 0.016 to 1 µg/mL
- MIC90 ([10]; read-out: MIC90): 0.063 µg/mL (≈ 0.162 µM)
- MIC50 [11]: 0.032 µg/mL (≈ 0.0822 µM)
- MIC90 [11]: 4 µg/mL (≈ 10.3 µM)
- MIC Range [11]: ≤0.008 to 32 µg/mL
- MIC Range [12]: 0.016 to 0.25 µg/mL
- MIC50 ([12]; Klebsiella aerogenes): 0.032 µg/mL (≈ 0.0822 µM)
- MIC90 ([12]; Klebsiella aerogenes): 0.063 µg/mL (≈ 0.162 µM)
- MIC50 [13]: ≤ 0.008 µg/mL
- MIC90 [13]: 0.032 µg/mL (≈ 0.0822 µM)
- MIC Range [13]: ≤0.008 to 0.032 µg/mL
- MIC50 ([14]; Proteus mirabilis): 0.125 µg/mL (≈ 0.321 µM)
- MIC Range ([14]; Proteus mirabilis (n=30)): 0.063 to 16 µg/mL
- MIC90 ([14]; Proteus mirabilis (n=30), read-out: MIC90): 0.25 µg/mL (≈ 0.642 µM)
- MIC50 ([15]; Proteus vulgaris): 0.125 µg/mL (≈ 0.321 µM)
- MIC Range ([15]; Proteus vulgaris (n=25)): 0.063 to 1 µg/mL
- MIC90 ([15]; Proteus vulgaris (n=25), read-out: MIC90): 0.25 µg/mL (≈ 0.642 µM)
- MIC Range [16]: 0.016 to 16 µg/mL
- MIC50 ([16]; read-out: MIC50): 0.063 µg/mL (≈ 0.162 µM)
- MIC90 ([16]; read-out: MIC90): 0.25 µg/mL (≈ 0.642 µM)
- MIC50 ([17]; Providencia rettgeri): 0.125 µg/mL (≈ 0.321 µM)
- MIC90 ([17]; Providencia rettgeri (n=12)): 8 µg/mL (≈ 20.5 µM)
- MIC Range ([17]; Providencia rettgeri (n=12)): 0.063 to 16 µg/mL
- MIC50 ([18]; Escherichia coli): ≤ 0.03 µg/mL
- MIC90 ([18]; Escherichia coli): 0.25 µg/mL (≈ 0.642 µM)
- MIC Range [18]: ≤0.03 to 64 µg/mL
- MIC50 ([19]; Klebsiella pneumoniae): 0.06 µg/mL (≈ 0.154 µM)
- MIC90 ([19]; Klebsiella pneumoniae): 0.5 µg/mL (≈ 1.28 µM)
- MIC Range [19]: ≤0.03 to 4 µg/mL
- MIC50 [20]: 0.25 µg/mL (≈ 0.642 µM)
- MIC90 [20]: 16 µg/mL (≈ 41.1 µM)
- MIC ([21]; S. hadar(2), isolates with MICs for ciprofloxacin ≥[…]): 0.25 µg/mL (≈ 0.642 µM)
- MIC ([21]; S. newport(1), isolate with MIC for ciprofloxacin ≥[…]): 0.25 µg/mL (≈ 0.642 µM)
- MIC ([21]; S. virchow(2), isolates with MICs for ciprofloxacin ≥[…]): 0.12 µg/mL (≈ 0.308 µM)
- MIC ([21]; Salmonella, S. tshiongwe(1), isolate with MIC for ciprofloxacin ≥[…]): 0.25 µg/mL (≈ 0.642 µM)
